Results on 2 molecules are retold here after PMC12316058 (Nature chemical biology, 2024).

The structures appear in SMILES notation.

The target of one test is T1, Cs (R)-Bdh (Clostridium saccharoperbutylacetonicum, UniProt M1MWX5).
T1 sequence (M1MWX5 1-361): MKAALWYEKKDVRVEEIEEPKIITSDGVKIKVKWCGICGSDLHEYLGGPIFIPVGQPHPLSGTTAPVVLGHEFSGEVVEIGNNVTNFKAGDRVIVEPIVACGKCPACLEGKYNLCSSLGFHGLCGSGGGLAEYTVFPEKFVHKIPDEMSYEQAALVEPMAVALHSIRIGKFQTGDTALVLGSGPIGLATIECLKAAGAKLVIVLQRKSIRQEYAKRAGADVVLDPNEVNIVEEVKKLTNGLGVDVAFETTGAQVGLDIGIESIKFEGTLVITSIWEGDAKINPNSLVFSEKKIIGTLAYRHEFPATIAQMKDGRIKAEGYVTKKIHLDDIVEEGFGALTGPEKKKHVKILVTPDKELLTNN
Put plainly: specific activity, absorbance at […] nm. It is filed as biochemical. Conditions: 10 mM m-BDO, 4 mM NADP+, 50 mM glycine-NaOH pH 10.0.

The next test has as its target T2, Ll Nox (Lactococcus cremoris, UniProt A2RIB7).
T2 sequence (A2RIB7 1-446): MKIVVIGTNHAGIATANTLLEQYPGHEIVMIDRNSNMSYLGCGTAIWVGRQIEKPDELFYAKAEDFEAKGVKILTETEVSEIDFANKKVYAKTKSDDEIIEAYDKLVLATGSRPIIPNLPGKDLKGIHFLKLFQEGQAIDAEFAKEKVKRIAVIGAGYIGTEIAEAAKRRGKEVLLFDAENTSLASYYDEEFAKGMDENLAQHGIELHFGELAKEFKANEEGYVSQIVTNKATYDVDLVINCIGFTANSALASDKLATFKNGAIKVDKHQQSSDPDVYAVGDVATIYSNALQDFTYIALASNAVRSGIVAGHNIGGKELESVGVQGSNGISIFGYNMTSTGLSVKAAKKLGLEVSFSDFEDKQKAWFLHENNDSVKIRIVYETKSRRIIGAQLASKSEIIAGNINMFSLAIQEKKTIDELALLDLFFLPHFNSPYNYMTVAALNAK
The experiment in a line: absorbance at […] nm, initial rates. Conditions: 50 mM Tris-Cl pH 7.0, 37 °C; O2 as acceptor. It is filed as biochemical.

With `NC(=O)c1ccc[n+]([C@@H]2O[C@H](COP(=O)(O)OP(=O)(O)OC[C@H]3O[C@@H](n4cnc5c(N)ncnc54)[C@H](OP(=O)(O)O)[C@@H]3O)[C@@H](O)[C@H]2O)c1` [NADP+], the specific activity result on Cs (R)-Bdh is “We subsequently confirmed specific activity with NADP^+”.

As for `NC(=O)C1=CN([C@@H]2O[C@H](COP(=O)(O)O)[C@@H](O)[C@H]2O)C=CC1` [NMNH], the kcat/Km app result on Ll Nox is “Ll Nox WT (gray) and Nox Ortho (yellow) toward NADH, NADPH and NMNH”.
